Reference: patent US20230295197A1, “STAT5 and STAT6 Degraders and Uses Thereof” (REGENTS OF THE UNIVERSITY OF MICHICAN, priority 2022, published 2023)
Where two headings read alike, the source gives them in different places. *1 amine or outer side, *2 acyl side, *3 side chain or, on linkers, in order; H or OH if unused. Where a SMILES comes first, the peptide text is derived from it. [ ]: non-standard residue; d: D form. The star is where a group is joined. Benzothienyl2CO(5-CF2PO3H2) = O=C(c1cc2cc(C(F)(F)P(=O)(O)O)ccc2s1)*; βAla(N-(4-Br-phenyl)) = O=C(CCN(c1ccc(Br)cc1)[*:1])[*:2]; NHBn(4-(4-Me-thiazol-5-yl)) = Cc1ncsc1-c1ccc(CN*)cc1; Hyp = O=C(O)[C@@H]1C[C@@H](O)CN1; Tle = CC(C)(C)[C@H](N)C(=O)O; Ava = NCCCCC(=O)O

Target: T1, STAT6 (Homo sapiens, UniProt P42226)
T1 construct: endogenous in cells; host or cells: MOLM-16, KU-812, SKNO1, MB231, L1236
T1 sequence (P42226 1-847): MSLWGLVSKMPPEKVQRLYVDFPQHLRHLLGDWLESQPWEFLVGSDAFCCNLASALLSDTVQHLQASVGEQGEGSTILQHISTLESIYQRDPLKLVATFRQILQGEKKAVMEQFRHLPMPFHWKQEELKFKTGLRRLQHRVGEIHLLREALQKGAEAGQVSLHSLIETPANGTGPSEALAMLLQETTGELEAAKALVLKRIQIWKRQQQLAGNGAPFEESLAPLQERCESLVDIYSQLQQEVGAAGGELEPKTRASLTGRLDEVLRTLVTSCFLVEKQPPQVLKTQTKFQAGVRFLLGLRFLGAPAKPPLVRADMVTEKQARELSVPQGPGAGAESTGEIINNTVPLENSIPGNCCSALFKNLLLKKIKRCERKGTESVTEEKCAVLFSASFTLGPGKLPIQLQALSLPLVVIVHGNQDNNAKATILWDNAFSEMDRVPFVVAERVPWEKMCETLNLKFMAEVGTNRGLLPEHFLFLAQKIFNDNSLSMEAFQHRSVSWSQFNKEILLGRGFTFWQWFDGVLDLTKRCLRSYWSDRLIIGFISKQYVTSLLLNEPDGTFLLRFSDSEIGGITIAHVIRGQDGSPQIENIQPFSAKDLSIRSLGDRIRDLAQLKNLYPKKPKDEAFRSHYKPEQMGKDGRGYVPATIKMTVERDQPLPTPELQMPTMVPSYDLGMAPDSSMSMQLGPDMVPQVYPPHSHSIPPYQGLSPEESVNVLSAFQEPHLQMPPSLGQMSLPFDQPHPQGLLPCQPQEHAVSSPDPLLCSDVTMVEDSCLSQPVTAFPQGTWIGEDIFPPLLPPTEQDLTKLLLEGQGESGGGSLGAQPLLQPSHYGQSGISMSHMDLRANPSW
Test: Immunoblotting (Western blot) analysis of STAT6 degradation efficiency of degraders in treated cells
Type: cell-based
Summary of the method: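 Degradation read by quantitative near-infrared Western blot: equal protein loads (20-40 μg) from compound-treated versus untreated cells, probed overnight at 4° C. for STAT5 or STAT6 with GAPDH reference. Compound concentrations and exposure times as indicated; cells grown in medium with 10% FBS at 37° C.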

[1] = L1236 cells, read-out: DC50 S6 L1236
[2] = MOLM-16 cells, class symbols, read-out: DC50 S6 MOLM-16

CC(C)(C)[C@H](NC(=O)c1cc2cc(C(F)(F)P(=O)(O)O)ccc2s1)C(=O)N1C[C@@H](NC(=O)CCCCCC#Cc2ccc3c(c2)CN(C2CCC(=O)NC2=O)C3=O)C[C@H]1C(=O)N1CCO[C@H](c2ccccc2)C1 (stereo partly drawn) [Compound 566, ((2-(((2S)-1-((2S,4S)-4-(8-(2-(2,6-dioxopiperidin-3-yl)-1-oxoisoindolin-5-yl)oct-7-ynamido)-2-((R)-2-phenylmorpholine-4-carbonyl)pyrrolidin-1-yl)-3,3-dimethyl-1-oxobutan-2-yl)carbamoyl)benzo[b]thiophen-5-yl)difluoromethyl)phosphonic acid]
DC50 [1]: > 10 µM | DC50 [2]: > 10 µM

Cc1ncsc1-c1ccc(CNC(=O)[C@@H]2C[C@@H](O)CN2C(=O)[C@@H](NC(=O)CCCCNC(=O)CCN(C(=O)[C@@H]2CCCN2C(=O)[C@@H](NC(=O)c2cc3cc(C(F)(F)P(=O)(O)O)ccc3s2)C(C)(C)C)c2ccc(Br)cc2)C(C)(C)C)cc1 [Compound 401] ({Benzothienyl2CO(5-CF2PO3H2)}-[Tle]P[βAla(N-(4-Br-phenyl))][Ava][Tle][Hyp]-{NHBn(4-(4-Me-thiazol-5-yl))})
DC50 (read-out: DC50 S6 MB231, MB231 cells): > 10 µM

CC(C)(C)[C@H](NC(=O)c1cc2cc(C(F)(F)P(=O)(O)O)ccc2s1)C(=O)N1CCN(C(=O)CC(=O)NCC#Cc2ccc3c(c2)C(=O)N(C2CCC(=O)NC2=O)C3=O)C[C@H]1C(=O)N1CCC[C@H](c2ccccc2)C1 (stereo partly drawn) [Compound 522, ((2-(((2S)-1-((2S)-4-(3-((3-(2-(2,6-dioxopiperidin-3-yl)-1,3-dioxoisoindolin-5-yl)prop-2-yn-1-yl)amino)-3-oxopropanoyl)-2-((R)-3-phenylpiperidine-1-carbonyl)piperazin-1-yl)-3,3-dimethyl-1-oxobutan-2-yl)carbamoyl)benzo[b]thiophen-5-yl)difluoromethyl)phosphonic acid]
DC50 [2]: > 10 µM

CC(C)(C)[C@H](NC(=O)c1cc2cc(C(F)(F)P(=O)(O)O)ccc2s1)C(=O)N1Cc2cc(OCC(=O)NCCCCC#Cc3cccc4c3C(=O)N(C3CCC(=O)NC3=O)C4=O)ccc2C[C@H]1C(=O)N1CCC[C@H](c2ccccc2)C1 (stereo partly drawn) [Compound 555, ((2-(((2S)-1-((3S)-7-(2-((6-(2-(2,6-dioxopiperidin-3-yl)-1,3-dioxoisoindolin-4-yl)hex-5-yn-1-yl)amino)-2-oxoethoxy)-3-((R)-3-phenylpiperidine-1-carbonyl)-3,4-dihydroisoquinolin-2(1H)-yl)-3,3-dimethyl-1-oxobutan-2-yl)carbamoyl)benzo[b]thiophen-5-yl)difluoromethyl)phosphonic acid]
DC50 [2]: > 10 µM

CC(C)(C)[C@H](NC(=O)c1cc2cc(C(F)(F)P(=O)(O)O)ccc2s1)C(=O)N1CCN(C(=O)CC(=O)NCCCCCC#Cc2cccc3c2C(=O)N(C2CCC(=O)NC2=O)C3=O)C[C@H]1C(=O)N1CCC[C@H](c2ccccc2)C1 (stereo partly drawn) [Compound 529, ((2-(((2S)-1-((2S)-4-(3-((7-(2-(2,6-dioxopiperidin-3-yl)-1,3-dioxoisoindolin-4-yl)hept-6-yn-1-yl)amino)-3-oxopropanoyl)-2-((R)-3-phenylpiperidine-1-carbonyl)piperazin-1-yl)-3,3-dimethyl-1-oxobutan-2-yl)carbamoyl)benzo[b]thiophen-5-yl)difluoromethyl)phosphonic acid]
DC50 [2]: > 10 µM

CC(C)(C)[C@H](NC(=O)c1cc2cc(C(F)(F)P(=O)(O)O)ccc2s1)C(=O)N1C[C@@H](OCCCCC#Cc2cccc3c2CN(C2CCC(=O)NC2=O)C3=O)C[C@H]1C(=O)N1CCO[C@H](c2ccccc2)C1 (stereo partly drawn) [Compound 594, ((2-(((2S)-1-((2S,4S)-4-((6-(2-(2,6-dioxopiperidin-3-yl)-1-oxoisoindolin-4-yl)hex-5-yn-1-yl)oxy)-2-((R)-2-phenylmorpholine-4-carbonyl)pyrrolidin-1-yl)-3,3-dimethyl-1-oxobutan-2-yl)carbamoyl)benzo[b]thiophen-5-yl)difluoromethyl)phosphonic acid]
DC50 [2]: < 0.1 µM

CC(C)(C)[C@H](NC(=O)c1cc2cc(C(F)(F)P(=O)(O)O)ccc2s1)C(=O)N1C[C@@H](OCC(=O)NCCCCCCCCC#Cc2ccc3c(c2)C(=O)N(C2CCC(=O)NC2=O)C3=O)C[C@H]1C(=O)N1CCO[C@H](c2ccccc2)C1 (stereo partly drawn) [Compound 490, ((2-(((2S)-1-((2S,4S)-4-(2-((10-(2-(2,6-dioxopiperidin-3-yl)-1,3-dioxoisoindolin-5-yl)dec-9-yn-1-yl)amino)-2-oxoethoxy)-2-((R)-2-phenylmorpholine-4-carbonyl)pyrrolidin-1-yl)-3,3-dimethyl-1-oxobutan-2-yl)carbamoyl)benzo[b]thiophen-5-yl)difluoromethyl)phosphonic acid]
DC50 [2]: > 10 µM

Cc1ncsc1-c1ccc([C@H](C)NC(=O)[C@@H]2C[C@@H](O)CN2C(=O)[C@@H](NC(=O)CCCCNC(=O)COc2ccc3c(c2)CN(C(=O)[C@@H](NC(=O)c2cc4cc(C(F)(F)P(=O)(O)O)ccc4s2)C(C)(C)C)[C@H](C(=O)N2CCO[C@H](c4ccccc4)C2)C3)C(C)(C)C)cc1 [Compound 464, (difluoro(2-(((S)-1-((S)-7-(2-((5-(((S)-1-((2S,4R)-4-hydroxy-2-(((S)-1-(4-(4-methylthiazol-5-yl)phenyl)ethyl)carbamoyl)pyrrolidin-1-yl)-3,3-dimethyl-1-oxobutan-2-yl)amino)-5-oxopentyl)amino)-2-oxoethoxy)-3-((R)-2-phenylmorpholine-4-carbonyl)-3,4-dihydroisoquinolin-2(1H)-yl)-3,3-dimethyl-1-oxobutan-2-yl)carbamoyl)benzo[b]thiophen-5-yl)methyl)phosphonic acid]
DC50 [1]: > 10 µM | DC50 [2]: > 10 µM

CC(C)(C)[C@H](NC(=O)c1cc2cc(C(F)(F)P(=O)(O)O)ccc2s1)C(=O)N1Cc2cc(OCC(=O)NCCCCCC#Cc3ccc4c(c3)C(=O)N(C3CCC(=O)NC3=O)C4=O)ccc2C[C@H]1C(=O)N1CCC[C@H](c2ccccc2)C1 (stereo partly drawn) [Compound 558, ((2-(((2S)-1-((3S)-7-(2-((7-(2-(2,6-dioxopiperidin-3-yl)-1,3-dioxoisoindolin-5-yl)hept-6-yn-1-yl)amino)-2-oxoethoxy)-3-((R)-3-phenylpiperidine-1-carbonyl)-3,4-dihydroisoquinolin-2(1H)-yl)-3,3-dimethyl-1-oxobutan-2-yl)carbamoyl)benzo[b]thiophen-5-yl)difluoromethyl)phosphonic acid]
DC50 [2]: > 10 µM

CC(C)(C)[C@H](NC(=O)c1cc2cc(C(F)(F)P(=O)(O)O)ccc2s1)C(=O)N1C[C@@H](OCCCCCCC#Cc2cccc3c2CN(C2CCC(=O)NC2=O)C3=O)C[C@H]1C(=O)N1CCO[C@H](c2ccccc2)C1 (stereo partly drawn) [Compound 587, ((2-(((2S)-1-((2S,4S)-4-((8-(2-(2,6-dioxopiperidin-3-yl)-1-oxoisoindolin-4-yl)oct-7-yn-1-yl)oxy)-2-((R)-2-phenylmorpholine-4-carbonyl)pyrrolidin-1-yl)-3,3-dimethyl-1-oxobutan-2-yl)carbamoyl)benzo[b]thiophen-5-yl)difluoromethyl)phosphonic acid]
DC50 [1]: 0.1 to 1 µM | DC50 [2]: < 0.1 µM

CC(C)(C)[C@H](NC(=O)c1cc2cc(C(F)(F)P(=O)(O)O)ccc2s1)C(=O)N1C[C@@H](OCC(=O)NCC#Cc2ccc3c(c2)C(=O)N(C2CCC(=O)NC2=O)C3=O)C[C@H]1C(=O)N1CCO[C@H](c2ccccc2)C1 (stereo partly drawn) [Compound 480, ((2-(((2S)-1-((2S,4S)-4-(2-((3-(2-(2,6-dioxopiperidin-3-yl)-1,3-dioxoisoindolin-5-yl)prop-2-yn-1-yl)amino)-2-oxoethoxy)-2-((R)-2-phenylmorpholine-4-carbonyl)pyrrolidin-1-yl)-3,3-dimethyl-1-oxobutan-2-yl)carbamoyl)benzo[b]thiophen-5-yl)difluoromethyl)phosphonic acid]
DC50 [2]: > 10 µM

Cc1ncsc1-c1ccc([C@H](C)NC(=O)[C@@H]2C[C@@H](O)CN2C(=O)[C@@H](NC(=O)CCNC(=O)CC(=O)N2CCN(C(=O)[C@@H](NC(=O)c3cc4cc(C(F)(F)P(=O)(O)O)ccc4s3)C(C)(C)C)[C@H](C(=O)N3CCO[C@H](c4ccccc4)C3)C2)C(C)(C)C)cc1 [Compound 444, (difluoro(2-(((S)-1-((S)-4-(3-((3-(((S)-1-((2S,4R)-4-hydroxy-2-(((S)-1-(4-(4-methylthiazol-5-yl)phenyl)ethyl)carbamoyl)pyrrolidin-1-yl)-3,3-dimethyl-1-oxobutan-2-yl)amino)-3-oxopropyl)amino)-3-oxopropanoyl)-2-((R)-2-phenylmorpholine-4-carbonyl)piperazin-1-yl)-3,3-dimethyl-1-oxobutan-2-yl)carbamoyl)benzo[b]thiophen-5-yl)methyl)phosphonic acid]
DC50 [1]: > 10 µM | DC50 [2]: > 10 µM
